US11401264B2, “Heterocyclic compound” (Orizuru Therapeutics, Inc., priority 2018, dated 2022)

Experiments:
[1] = system: cardiomyocytes (embryoid bodies) from double knock-in human iPS cell lines (mCherry at TNNI3 locus); assay: Experimental Example 2: mCherry expression in TNNI1+ cells by flow cytometry; format: cell-based; conditions: 3 μM, 8th-16th day, DMSO control 7.8
Method: For detection of cardiomyocyte maturation, double knock-in human iPS cell lines, in which reporter protein sequences, EmGFP (Sequence Number 1) and mCherry (Sequence Number 2) were inserted into gene loci for TNNI1 and TNNI3, respectively, were prepared (the human iPS cells were prepared from episomal vector (loaded gene; OCT3/4, KLF4, SOX2, L-MYC, LIN28, mouse p53DD) using PBMC (LP_167, Sample ID: 20130318) purchased from CTL (reference literature; Okita K, et al. Stem Cells. 2012 Nov. 29. doi: 10.1002/stem.1293)).
The maintenance culture of the above-mentioned reporter iPS cell lines was carried out by a conventional method (Okita K, et al. Stem Cells. 2012 Nov. 29. doi: 10.1002/stem.1293).
For differentiation induction into cardiomyocytes, the reporter iPS cell lines were treated with 0.5×TrypLE select (Life Technologies, diluted in 1/2 with 0.5 mM EDTA/PBS) for 4 to 5 minutes, and the cells were exfoliated using a cell scraper (IWAKI), and then dissociated into the single cell by pipetting. The medium was removed by centrifugation (1,000 rpm, 5 min), and the obtained cells were suspended in a medium prepared by adding 1% L-glutamine, transferrin 150 μg/mL, ascorbic acid 50 μg/mL (Sigma), monothioglycerol […], 10 μM Rock inhibitor (Y-27632), 2 ng/mL BMP4 (R&D) and 0.5% Matrigel (Growth Factor Reduced) to StemPro-34 SFM (ThermoFisher) in a 6 well-plate by 2×10^6 cells/1.5 mL/well, and then subjected to static culture at 37° C., under 5% oxygen condition to form embryoid bodies (0 day).
Next day (1st day), a medium prepared by adding 1% L-glutamine, transferrin 150 μg/mL, ascorbic acid 50 μg/mL (Sigma), monothioglycerol 4><10^−4 M, 1.8 μL (concentration 12 ng/mL) of 10 μg/mL activin A, […] (concentration 10 ng/mL) of 10 μg/mL bFGF and 2.7 μL (concentration 18 ng/mL) of 10 μg/mL BMP4 to 1.5 mL of StemPro-34 SFM (ThermoFisher) was added to each well of the 6 well plate containing the embryoid bodies to adjust the volume combined with the 0 day's medium to final 3 mL (activin A: 6 ng/ml, bFGF: 5 ng/ml, BMP4: 10 ng/ml), and the embryoid bodies were cultured at 37° C. for additional 2 days, under 5% oxygen condition.
Then (3rd day), the 6 well plate containing the embryoid bodies was inclined, and then left to stand for 1 to 2 minutes until the embryoid bodies were precipitated at the edges of the wells, and the supernatant was aspirated so as not to suck the embryoid bodies. Then, IMDM (ThermoFisher) medium was added to each well, and, as above, the plate was inclined, and then left to stand for 1 to 2 minutes, and the supernatant was aspirated so as not to suck the embryoid bodies. A medium prepared by adding 1% L-glutamine, transferrin 150 μg/mL, ascorbic acid 50 μg/mL (Sigma), monothioglycerol 4×10^−4 M, 10 ng/mL VEGF, 1 μM IWP-3, 0.6 μM dorsomorphin and 5.4 μM SB431542 to 3 mL of StemPro-34 SFM (ThermoFisher) was added to each well of the 6 well plate, and then the embryoid bodies were cultured at 37° C. for 3 days, under 5% oxygen condition.
Then (6th day), the 6 well plate containing the embryoid bodies was inclined, and then left to stand for 1 to 2 minutes until the embryoid bodies were precipitated at the edges of the wells, and the supernatant was aspirated so as not to suck the embryoid bodies. […]

[2] = system: cardiomyocytes from double knock-in human iPS cell lines (mCherry at TNNI3 locus); assay: Experimental Example 1: mCherry (TNNI3 reporter) immunostaining measured by high contents screening; format: cell-based; parameters: key to average fluorescent intensity (at 30 μM): —: The symbol in Table 2 means that the average fluorescent intensity cannot be evaluated due to cell decrease; conditions: read on 8th day, Alexa 647 anti-mCherry, control well 797; for average fluorescent intensity (at 1 μM): test compound 1 μM added on 3rd and 6th culture days; for average fluorescent intensity (at 30 μM): test compound 30 μM added on 3rd and 6th culture days
Procedure, shortened: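 Double knock-in iPS lines (EmGFP at TNNI1, mCherry at TNNI3) differentiated as embryoid bodies in stirred bioreactor at 37 °C, 5% O2: BMP4/activin A/bFGF, then VEGF, IWP-3, dorsomorphin, SB431542, then VEGF alone. On day 14, dissociated cells seeded at 1.0×10^4 cells/well on iMatrix-511 in AK02-based cardiomyocyte medium.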

Structure (SMILES) | mCherry+ (%) [1] | average fluorescent intensity (at 1 μM) [2] | average fluorescent intensity (at 30 μM) [2]
O=C1c2ccc(N3CCCCC3)cc2CN1c1ccc2[nH]c(-c3ccc(O)cc3)nc2c1 [Example 4, 2-(2-(4-hydroxyphenyl)-1H-benzimidazol-5-yl)-5-(piperidin-1-yl)isoindolin-1-one] | 58.1% | 1621 | 894
O=C(COc1ccc(-c2nc3cc(N4Cc5cc(N6CCCCC6)ccc5C4=O)ccc3[nH]2)cc1)Nc1ccc2c(c1)CCS2(=O)=O [Example 17, N-(1,1-dioxido-2,3-dihydro-1-benzothiophen-5-yl)-2-(4-(5-(1-oxo-5-(piperidin-1-yl)-1,3-dihydro-2H-isoindol-2-yl)-1H-benzimidazol-2-yl)phenoxy)acetamide] | 42.1% | 1544 | 1079
O=C1c2ccc(N3CCCCC3)cc2CN1c1ccc2[nH]c(-c3ccncc3)nc2c1 [Example 45, 5-(piperidin-1-yl)-2-(2-(pyridin-4-yl)-1H-benzimidazol-5-yl)isoindolin-1-one] | 66.6% | 1130 | 814
O=C1c2ccc(N3CCOCC3)cc2CN1c1ccc2[nH]c(-c3ccc(Cl)cc3)nc2c1 [Example 56, 2-(2-(4-chlorophenyl)-1H-benzimidazol-5-yl)-5-(morpholin-4-yl)isoindolin-1-one] |  | 1185 | 897
CCOc1ccc(Cc2nc3cc(N4Cc5cc(N6CCOCC6)ccc5C4=O)ccc3[nH]2)cc1 [Example 57, 2-(2-(4-ethoxybenzyl)-1H-benzimidazol-5-yl)-5-(morpholin-4-yl)isoindolin-1-one] |  | 778 | 1666
CCCOc1ccc(-c2nc3cc(N4Cc5cc(N6CCOCC6)ccc5C4=O)ccc3[nH]2)cc1 [Example 58, 5-(morpholin-4-yl)-2-(2-(4-propoxyphenyl)-1H-benzimidazol-5-yl)isoindolin-1-one] |  | 994 | 819
CCOc1ccc(-c2nc3cc(N4Cc5cc(N6CCOCC6)ccc5C4=O)ccc3n2C)cc1 [Example 59, 2-(2-(4-ethoxyphenyl)-1-methyl-1H-benzimidazol-5-yl)-5-(morpholin-4-yl)isoindolin-1-one] |  | 803 | 1301
CCOc1ccc(-c2nc3ccc(N4Cc5cc(N6CCOCC6)ccc5C4=O)cc3n2C)cc1 [Example 60, 2-(2-(4-ethoxyphenyl)-1-methyl-1H-benzimidazol-6-yl)-5-(morpholin-4-yl)isoindolin-1-one] |  | 770 | 868
CCOc1ccc(-c2nc3cc(N4Cc5cc(N(C)C)ccc5C4=O)ccc3[nH]2)cc1 [Example 61, 5-(dimethylamino)-2-(2-(4-ethoxyphenyl)-1H-benzimidazol-5-yl)isoindolin-1-one] |  | 1150 | 
CCOc1ccc(-c2nc3cc(N4Cc5cc(N6CCN(C)CC6)ccc5C4=O)ccc3[nH]2)cc1 [Example 62, 2-(2-(4-ethoxyphenyl)-1H-benzimidazol-5-yl)-5-(4-methylpiperazin-1-yl)isoindolin-1-one] |  | 1004 | —
CCOc1ccc(-c2nc3cc(N4Cc5cc(-n6cccc6)ccc5C4=O)ccc3[nH]2)cc1 [Example 63, 2-(2-(4-ethoxyphenyl)-1H-benzimidazol-5-yl)-5-(1H-pyrrol-1-yl)isoindolin-1-one] |  | 1194 | —
CCOc1ccc(-c2nc3cc(N4Cc5cc(N(CC)CC)ccc5C4=O)ccc3[nH]2)cc1 [Example 64, 5-(diethylamino)-2-(2-(4-ethoxyphenyl)-1H-benzimidazol-5-yl)isoindolin-1-one] |  | 1328 | —
CCOc1ccc(-c2nc3cc(N4Cc5cc(N6CCCCC6)ccc5C4=O)ccc3[nH]2)cc1 [Example 65, 2-(2-(4-ethoxyphenyl)-1H-benzimidazol-5-yl)-5-(piperidin-1-yl)isoindolin-1-one] |  | 1245 | 836
COCc1ccc(-c2nc3cc(N4Cc5cc(N6CCOCC6)ccc5C4=O)ccc3[nH]2)cc1 [Example 66, 2-(2-(4-(methoxymethyl)phenyl)-1H-benzimidazol-5-yl)-5-(morpholin-4-yl)isoindolin-1-one] |  | 1338 | 1358
O=C1c2ccc(N3CCOCC3)cc2CN1c1ccc2[nH]c(-c3ccc(F)cc3)nc2c1 [Example 67, 2-(2-(4-fluorophenyl)-1H-benzimidazol-5-yl)-5-(morpholin-4-yl)isoindolin-1-one] |  | 1367 | 1188
COc1ccc(-c2nc3cc(N4Cc5cc(N6CCCCC6)ccc5C4=O)ccc3[nH]2)cc1 [Example 68, 2-(2-(4-methoxyphenyl)-1H-benzimidazol-5-yl)-5-(piperidin-1-yl)isoindolin-1-one] |  | 1301 | 
COc1ccc(-c2nc3cc(N4Cc5cc(N6CCOCC6)ccc5C4=O)ccc3[nH]2)cc1 [Example 69, 2-(2-(4-methoxyphenyl)-1H-benzimidazol-5-yl)-5-(morpholin-4-yl)isoindolin-1-one] |  | 1222 | 1942
COc1ccc(-c2nc3cc(N4Cc5cc(Br)ccc5C4=O)ccc3[nH]2)cc1 [Example 70, 5-bromo-2-(2-(4-methoxyphenyl)-1H-benzimidazol-5-yl)isoindolin-1-one] |  | 998 | 4335
CCN(CC)c1ccc2c(c1)CN(c1ccc3[nH]c(-c4ccc(OC)cc4)nc3c1)C2=O [Example 71, 5-(diethylamino)-2-(2-(4-methoxyphenyl)-1H-benzimidazol-5-yl)isoindolin-1-one] |  | 923 | —
CCOc1ccc(-c2nc3cc(N4Cc5cc(N6CCOCC6)ccc5C4=O)ccc3[nH]2)cc1 [Example 72, 2-(2-(4-ethoxyphenyl)-1H-benzimidazol-5-yl)-5-(morpholin-4-yl)isoindolin-1-one] |  | 1370 | 948
O=C1c2ccc(N3CCOCC3)cc2CN1c1ccc2[nH]c(-c3ccccc3)nc2c1 [Example 73, 5-(morpholin-4-yl)-2-(2-phenyl-1H-benzimidazol-5-yl)isoindolin-1-one] |  | 1231 | 922
